From patent US20020155064A1, “Method for detection and localization of malignant human tumours” (priority 1997, published 2002)

System: neurotensin receptors
Assay: Receptor autoradiography displacement of [125I]-neurotensin binding on tumour tissue sections
Settings: tissue sections from human differentiated ductal pancreatic adenocarcinoma; 40,000 cpm/100 µl [125I]-neurotensin, increasing concentrations of unlabelled peptide; 4° C., 60 minutes; FIG. 1
Description: Receptor autoradiography is performed on 10- and 20-mm thick cryostat sections of the various tumour samples, as described by Reubi et al. (Cancer Res. 1990, 50, 5969-5977). […] After incubation, the sections are washed for eight minutes at 4° C. in four consecutive baths containing 50 mM Tris-HCl buffer, pH 7.6, dipped in ice-cold water, and then quickly dried in a refrigerator under a stream of cold air. The sections are subsequently exposed to a ^3H-Ultrofilm for 1 week, to detect the precise location of the radioactivity. […] Each point represents the optical density of binding measured in the tumour area. Non-specific binding is subtracted from all values.

Substance: Ac-Arg-Arg-Pro-Tyr-Ile-Leu-OH [acetyl-neurotensin 8-13]
- displacement of [125I]-neurotensin binding: Complete displacement
